The experiment concerns Chorioallantioic Membrane (CAM). The experiment is classed as in vivo. Conditions: 50 μg/cam; BRI2995: surviving eggs. The method, then:
The in vivo CAM angiogenesis model, initially described by Folkman (1985) and modified by Maragoudakis et al (1988) was used. Briefly, fresh fertilized eggs were incubated for 4 days at 37° C. when a window was opened on the egg shell exposing the CAM. The window was covered with cellophane tape and the eggs were returned to the incubator until day 9 when the test compounds were applied. The test compounds were placed on sterile plastic discs (10 mm) and were allowed to dry under sterile conditions. Control discs (containing PBS) were placed on the CAM 1 cm away from the discs containing the test material. A sterile solution of cortisone acetate (100 ug/disc, Sigma) was incorporated in all discs in order to prevent an inflammatory response. The loaded and dried discs were inverted and placed on the CAM, the windows were covered and the eggs incubated until day 11 when angiogenesis was assessed.
For morphological evaluation, eggs were treated as above. At day 11 the eggs were flooded with 10% buffered formalin (Janssen Chimica, Geel, Belguim), the plastic discs were removed and the eggs were kept at room temperature for at least 4 hours. At large area around the disc was cut off and placed on a glass slide, and the vascular density index (expressed as number of blood vessels) was measured by the method of Harris-Hooker et al (1983).

Turning to `CO[C@@H]1[C@H](OC(=O)NC(=O)CCl)CC[C@]2(CO2)[C@H]1[C@@]1(C)O[C@@H]1CC=C(C)C` [TNP-470], the “inhibition (reduction) of vascular density” value is on record as 21%±16.

These data come from patent US6426067B1, “Angiogenic inhibitory compounds” (Biomolecular Research Institute, Ltd., priority 1996, dated 2002).
